Here are results for one compound from ChEMBL document CHEMBL5143515, “Identification of new halogen-containing 2,4-diphenyl indenopyridin-5-one derivative as a boosting agent for the anticancer responses of clinically available topoisomerase inhibitors” (Eur J Med Chem, 2022).

The structures appear in SMILES notation. pIC50: −log10 of the molar value. Calls of active or inactive are those of the source. The rule behind the calls is not given here.

Data set [1] can be described thus: Genotoxicity in human HCT-15 cells assessed as production of gamma-H2AX at 2 to 5 uM and measured in presence of 1 nM camptothecin by western blot analysis. It counts as toxicity, cell-based. The note with it: hct-15, 5 µM, dose 2-5 µM. Background: Immunoblotting shows a protein as a band on a membrane.
A short description of data set [2]: Toxicity in mouse assessed as reduction in hemoglobin level at 4 mg/kg. It counts as organism-based. Conditions: in vivo.
Data set [3] can be described thus: Toxicity in mouse assessed as increase in d red cell distribution width at 4 mg/kg. The note with it: in vivo. It counts as organism-based.
Data set [4] concerns HCT-15. Description: Synergistic antiproliferative activity against human HCT-15 cells at 5 uM in presence of 1 nM camptothecin after 72 hrs by WST-1 assay. Format: functional, cell-based. For orientation: Formazan colour is commonly taken as a measure of viable cells.
Data set [5] deals with HCT-15. Kind of data set: Induction of apoptosis in human HCT-15 cells assessed as change in c-caspase 7 level at 2 to 5 uM in presence of 0.2 uM etoposide and measured by Western blot analysis. Format: functional, cell-based. The note with it: dose 2-5 µM.
A short description of data set [6]: Toxicity in mouse assessed as increase in mean corpuscular volume of RBC at 4 mg/kg. It counts as organism-based, Erythrocyte. The note with it: in vivo.
Data set [7] relates to HCT-15. Kind of data set: Antiproliferative activity against human HCT-15 cells after 72 hrs by EZ-Cytox colorimetric assay. Conditions: HCT-15, 72 h. Format: functional, cell-based.
The test system of data set [8] is HCT-15. Description: Induction of apoptosis in human HCT-15 cells assessed as change in c-caspase 7 level at 2 to 5 uM in presence of 1 nM camptothecin and measured by Western blot analysis. It counts as functional, cell-based. Conditions: dose 2-5 µM.
Data set [9] relates to HCT-15. Kind of data set: Antitumor activity against human HCT-15 cells xenografted in female BALB/c nude mouse assessed as decrease in Ki67 expression at 4 mg/kg, ip administered every day for 6 days in combination with etoposide at 2 mg/kg, ip administered every day for 6 days measured by immunohistochemistry analysis. It counts as functional, organism-based. Conditions: time 6.0 day. For orientation: In xenograft studies the graft and the host belong to different species.

Data set [10] can be described thus: Toxicity in mouse assessed as reduction in number of red blood cells at 4 mg/kg. It counts as organism-based. Conditions: in vivo.
A short description of data set [11]: Genotoxicity in human HCT-15 cells assessed as production of gamma-H2AX at 2 to 5 uM and measured in presence of 0.2 uM etoposide by western blot analysis. Format: toxicity, cell-based. The note with it: hct-15, 5 µM, dose 2-5 µM.
Data set [12] deals with DNA topoisomerase 2-alpha (Homo sapiens) (UniProt P11388). Kind of data set: Inhibition of recombinant human topoisomerase 2alpha assessed as relaxation of supercoiled plasmid pBR322 DNA at 20 uM by agarose gel electrophoresis (reference value: 48.4%).
Data set [13] deals with HCT-15. Description: Induction of apoptosis in human HCT-15 cells assessed as change in c-PARP level at 2 to 5 uM in presence of 0.2 uM etoposide and measured by Western blot analysis. Format: functional, cell-based. The note with it: dose 2-5 µM.

Chain of DNA topoisomerase 2-alpha (Homo sapiens) (P11388 whole entry): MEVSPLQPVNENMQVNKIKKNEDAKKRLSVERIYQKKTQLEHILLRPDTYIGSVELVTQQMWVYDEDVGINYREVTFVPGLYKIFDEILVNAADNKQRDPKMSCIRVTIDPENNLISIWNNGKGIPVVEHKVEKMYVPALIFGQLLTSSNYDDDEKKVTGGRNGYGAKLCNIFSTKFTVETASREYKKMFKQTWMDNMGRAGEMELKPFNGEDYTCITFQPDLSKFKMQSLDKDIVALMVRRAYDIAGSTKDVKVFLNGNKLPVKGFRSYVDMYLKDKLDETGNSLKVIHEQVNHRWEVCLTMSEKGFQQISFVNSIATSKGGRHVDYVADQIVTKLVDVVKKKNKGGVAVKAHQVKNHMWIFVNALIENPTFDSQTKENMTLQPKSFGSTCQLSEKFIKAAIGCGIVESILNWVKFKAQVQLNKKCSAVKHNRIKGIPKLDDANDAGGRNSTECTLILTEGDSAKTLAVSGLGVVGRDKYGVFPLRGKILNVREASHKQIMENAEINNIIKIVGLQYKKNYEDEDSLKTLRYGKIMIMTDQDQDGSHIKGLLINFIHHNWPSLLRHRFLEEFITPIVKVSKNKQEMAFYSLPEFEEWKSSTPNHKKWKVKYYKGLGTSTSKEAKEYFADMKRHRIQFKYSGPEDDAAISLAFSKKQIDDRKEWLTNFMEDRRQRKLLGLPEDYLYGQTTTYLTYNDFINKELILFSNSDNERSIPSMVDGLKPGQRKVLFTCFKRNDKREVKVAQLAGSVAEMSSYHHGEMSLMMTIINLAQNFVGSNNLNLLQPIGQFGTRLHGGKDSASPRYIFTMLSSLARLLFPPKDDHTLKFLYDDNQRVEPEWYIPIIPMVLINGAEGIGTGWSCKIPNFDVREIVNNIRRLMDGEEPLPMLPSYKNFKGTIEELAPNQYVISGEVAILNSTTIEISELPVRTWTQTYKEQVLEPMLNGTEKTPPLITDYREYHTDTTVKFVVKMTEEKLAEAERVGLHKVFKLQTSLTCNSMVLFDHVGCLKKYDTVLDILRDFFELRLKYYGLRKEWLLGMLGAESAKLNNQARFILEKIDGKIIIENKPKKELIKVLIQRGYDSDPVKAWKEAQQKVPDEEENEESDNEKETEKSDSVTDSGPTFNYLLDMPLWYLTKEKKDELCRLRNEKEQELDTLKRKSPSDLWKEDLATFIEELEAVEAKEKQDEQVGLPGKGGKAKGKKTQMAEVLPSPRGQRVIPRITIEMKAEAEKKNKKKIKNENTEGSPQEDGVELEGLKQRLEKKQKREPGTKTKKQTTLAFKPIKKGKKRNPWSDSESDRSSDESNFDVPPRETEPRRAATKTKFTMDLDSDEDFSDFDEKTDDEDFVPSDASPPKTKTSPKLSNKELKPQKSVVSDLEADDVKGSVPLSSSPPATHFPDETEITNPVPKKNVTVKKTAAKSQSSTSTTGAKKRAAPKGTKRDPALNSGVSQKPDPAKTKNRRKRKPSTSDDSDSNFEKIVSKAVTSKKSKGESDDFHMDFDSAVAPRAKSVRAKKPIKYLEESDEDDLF

A word on the pIC50: it is −log10 of the IC50, conventionally taken in molar units. Read a high pIC50 as a low IC50. The term inhibition denotes the share of the control response that was lost under treatment. Consider `O=C1c2ccccc2-c2nc(-c3ccc(Br)cc3)cc(-c3ccccc3)c21`, for which the Activity entry in [1], in data set [2], in data set [3], in [6], in data set [10] and in data set [11] was “Non-Toxic” throughout. Besides, the result in data set [4], in [5], in data set [8], in data set [9] and in [13] was Active. In data set [7], the pIC50 is 5.11. Besides, the inhibition in data set [12] came to 6.6%.
